Test results from article PMC12471853, “New Marine Actinobacteria Strain, Micromonospora sp. SH-82: Characterization, Specialized Metabolites and Biological Activities” (Microorganisms, 2025).
Like-named read-outs stand apart in the source and are kept apart here.

Key:
[1] = Cytotoxic activity, CellTiter Glo luminescent cell viability assay, 72 h; assay type: cell-based; details: human, read-out: Percentage of Cell Viability
Procedure: (§1) Biological activity assays were conducted on microbial extract from Micromonospora sp. SH-82 and on isolated compounds 1, 2, 3, and 5. The tests focused on antiplasmodial and cytotoxic activity. Detailed protocols for these activity tests can be found in reference. The cytotoxic activity was performed on human colorectal HCT-116 and mammary MDA-MB-231 carcinoma cells. Human HCT-116 colorectal carcinoma cells were grown in Gibco McCoy’s 5A supplemented with 10% fetal calf serum and 1% glutamine. MDA-MB231 breast carcinomas were grown in RPMI 1640 supplemented with 10% fetal calf serum and 1% glutamine. Human hTERT-RPE1 cells were cultured in DMEM/F12 medium containing 10% fetal calf serum and 1% glutamine, enabling their impact on a healthy cell line. Cell lines were maintained at 37 °C in a humidified atmosphere containing 5% CO2. Cell viability was determined via a luminescent assay according to the manufacturer’s instructions (Promega, Madison, WI, USA). Briefly, the cells were seeded in 96-well plates (2.5 × 10^3 cells/well) containing 90 μL of growth medium. After 24 h of culture, the cells were treated with the tested compounds at 10 and 1 μg/mL (extracts) or at 10 and 1 μM (pure compounds) final concentrations. Control cells were treated with the vehicle (DMSO), and no effect was observed from DMSO diluted at 1/1000. After 72 h of incubation, 100 μL of CellTiter Glo Reagent was added for 15 min before recording luminescence with a spectrophotometric plate reader PolarStar Omega (BMG LabTech, Ortenberg, Germany). The percent viability index was evaluated by two independent assays in triplicate.

[2] = Cytotoxicity on non-cancerous cell line, CellTiter Glo luminescent cell viability assay, 72 h; assay type: cell-based, human; details: human, hTERT-RPE1 cells (non-cancerous cell line), 72 h, read-out: Percentage of Cell Viability; for viability at 72 h, 1 µM: RPE1, pure compounds at 1 µM; for viability at 72 h, 10 µM: RPE1, pure compounds at 10 µM
Procedure: as §1

RPE1 cell line = experiment: as above; assay type: cell-based, human; details: RPE1; 10 and 1 µM (compounds) or 10 and 1 µg/mL (extract)
Procedure: as §1

[3] = system: Plasmodium falciparum 3D7; experiment: Antiplasmodial activity, in vitro culture of chloroquine-sensitive strain; assay type: cell-based
Procedure: Biological activity assays were conducted on microbial extract from Micromonospora sp. SH-82 and on isolated compounds 1, 2, 3, and 5. The tests focused on antiplasmodial and cytotoxic activity. Detailed protocols for these activity tests can be found in reference. The antiplasmodial activity was conducted by using in vitro cultures of the chloroquine-sensitive 3D7 strain of Plasmodium falciparum (BEI Resources, Manassas, VA, USA) following the methodology of Trager and Jensen. The assays were performed in three independent experiments (n = 3), each conducted in duplicate. Artemisinin was used as the positive control, while DMSO served as the vehicle and negative control, representing 100% parasite growth. Untreated red blood cells were also included as a blank. The measurements consisted of determining the concentration required to inhibit 50% of parasite growth (IC50), expressed in µg/mL for the crude extract and in µM for the isolated compounds. IC50 values were calculated via simple linear regression.

[4] = Stability check of compound 5 by new NMR and ESI+-HRMS analyses; assay type: physicochemical; details: re-analysis by NMR and ESI+-HRMS prior to biological assays, one year later (Figure S43)
Procedure: Prior to conducting biological assays, it was necessary to ascertain the stability of compound 5. To this end, new NMR and ESI^+-HRMS analyses were recorded (Figures S38–S43). […] The first one could be identified as the 9-hydroxy derivative of 5 and, thus, to 6,9-hemiacetal-9-hydroxy-10,11-anhydroerythronolide B (5.1) (Figure 2). The second one has a carbonyl in C-9 at δC 208.8 and, therefore, corresponds to the open form of the first one: 8-epi-10,11-anhydroerythronolide B (5.2) (Figure 2).

[5] = HCT-116 colorectal carcinoma cells, HCT-116, pure compounds at 1 µM
[6] = HCT-116 colorectal carcinoma cells, HCT-116, pure compounds at 10 µM
[7] = MDA-MB-231 breast carcinoma cells, MDA-MB-231, pure compounds at 1 µM
[8] = MDA-MB-231 breast carcinoma cells, MDA-MB-231, pure compounds at 10 µM

| SMILES | viability at 72 h, 1 µM [1, 5] | viability at 72 h, 10 µM [1, 6] | viability at 72 h, 1 µM [1, 7] | viability at 72 h, 10 µM [1, 8] | viability at 72 h, 1 µM [2] | viability at 72 h, 10 µM [2] | toxicity towards healthy cells (in words) (RPE1 cell line) | IC50 ([3]; 3D7, Experiment 1, dose-response curve, Figure 8, read-out: IC50 against Plasmodium falciparum 3D7 (converted)) | IC50 ([3]; 3D7, Experiment 2, dose-response curve, Figure 8, read-out: IC50 against Plasmodium falciparum 3D7 (converted)) | IC50 ([3]; 3D7, Experiment 3, dose-response curve, Figure 8, read-out: IC50 against Plasmodium falciparum 3D7 (converted)) | IC50 ([3]; 3D7, IC50 obtained from the average dose-response curve, Figure 8, read-out: IC50 (mean curve)) | IC50 ([3]; 3D7, arithmetic mean ± SD of three independent assays, read-out: IC50 against Plasmodium falciparum 3D7 (converted)) | IC50 ([3]; 3D7, mean ± SD of three independent assays, read-out: IC50 against Plasmodium falciparum 3D7 (converted)) | IC50 ([3]; 3D7, positive control, read-out: IC50 against Plasmodium falciparum 3D7 (converted)) | stability of the compound (in words) [4] |
| --- | --- | --- | --- | --- | --- | --- | --- | --- | --- | --- | --- | --- | --- | --- | --- |
| CCC1OC(=O)C(C)C(OC2CC(C)(OC(C)=O)C(OC(C)=O)C(C)O2)C(C)C(OC2OC(C)CC(N(C)C)C2O)C(C)(OC2CC(N(C)C)C(O)C(C)O2)CC(C)C(=O)C(C)C(O)C1(C)O (stereo not drawn) [Compound 3, megalomicin C1] | 100 ± 1.66% | 97.3 ± 2.22% | 102 ± 1.74% | 98.6 ± 1.38% | 104 ± 1.32% | 104 ± 1.94% | No activity | 3.61 µM | 9.54 µM | 5.96 µM | 6.31 µM | 6.37 µM | 6.12 ± 2.87 µg/mL |  |  |
| CC[C@H]1OC(=O)[C@H](C)[C@@H](O)[C@H](C)[C@@H](O)[C@](C)(O)C[C@@H](C)C(=O)[C@H](C)[C@@H](O)[C@H]1C [Compound 1, Erythronolide B] | 101 ± 0.5% | 104 ± 1.16% | 107 ± 0.86% | 100 ± 0.76% | 102 ± 1.58% | 97.3 ± 1.03% | No activity |  |  |  |  |  |  |  |  |
| CC[C@H]1OC(=O)[C@H](C)[C@@H](O)[C@H](C)[C@@H](O)[C@@H](C)C[C@@H](C)C(=O)[C@H](C)[C@@H](O)[C@H]1C [Compound 2, 6-desoxyerythronolide B] | 101 ± 1.62% | 103 ± 3.56% | 105 ± 1.56% | 101 ± 1.13% | 99.1 ± 1.4% | 95.3 ± 0.96% | No activity |  |  |  |  |  |  |  |  |
| C[C@@H]1CC[C@H]2[C@@H](C)C(=O)O[C@@H]3O[C@@]4(C)CC[C@@H]1[C@]32OO4 [Artemisinin, reference compound] |  |  |  |  |  |  |  |  |  |  |  |  |  | 0.00636 µg/mL |  |
| CCC1OC(=O)C(C)C(O)C(C)C(O)C2(C)CC(C)C(OC)(O2)C(C)=CC1C (stereo not drawn) [Compound 5, 6,9-hemiacetal-9-O-methyl-10,11-anhydroerythronolide B] | 99.1 ± 0.32% | 99.7 ± 0.59% | 100 ± 1.74% | 99 ± 3.28% | 103 ± 1.52% | 103 ± 1.77% | No activity |  |  |  |  |  |  |  | a mixture of two compounds is observed |
